SMILES: CCOC(=O)[C@H](CCc1ccccc1)N[C@@H](C)C(=O)O
- solubility (mole fraction) (in acetone, 273.15 K): 0.00387
- solubility (mole fraction) (in acetone, 278.15 K): 0.00426
- solubility (mole fraction) (in acetone, 283.15 K): 0.00468
- solubility (mole fraction) (in acetone, 288.15 K): 0.00515
- solubility (mole fraction) (in acetone, 293.15 K): 0.00568
- solubility (mole fraction) (in acetone, 298.15 K): 0.00627
- solubility (mole fraction) (in acetone, 303.15 K): 0.007
- solubility (mole fraction) (in acetone, 308.15 K): 0.0078
- solubility (mole fraction) (in acetone, 313.15 K): 0.00868
- solubility (mole fraction) (in acetone, 318.15 K): 0.0097
- solubility (mole fraction) (in acetonitrile, 273.15 K): 0.00012
- solubility (mole fraction) (in acetonitrile, 278.15 K): 0.000199
- solubility (mole fraction) (in acetonitrile, 283.15 K): 0.000288
- solubility (mole fraction) (in acetonitrile, 288.15 K): 0.000427
- solubility (mole fraction) (in acetonitrile, 293.15 K): 0.000608
- solubility (mole fraction) (in acetonitrile, 298.15 K): 0.000907
- solubility (mole fraction) (in acetonitrile, 303.15 K): 0.00129
- solubility (mole fraction) (in acetonitrile, 308.15 K): 0.00183
- solubility (mole fraction) (in acetonitrile, 313.15 K): 0.00255
- solubility (mole fraction) (in acetonitrile, 318.15 K): 0.00349
- solubility (mole fraction) (in ethanol, 273.15 K): 0.00273
- solubility (mole fraction) (in ethanol, 278.15 K): 0.00281
- solubility (mole fraction) (in ethanol, 283.15 K): 0.00294
- solubility (mole fraction) (in ethanol, 288.15 K): 0.00312
- solubility (mole fraction) (in ethanol, 293.15 K): 0.00334
- solubility (mole fraction) (in ethanol, 298.15 K): 0.0036
- solubility (mole fraction) (in ethanol, 303.15 K): 0.00396
- solubility (mole fraction) (in ethanol, 308.15 K): 0.00436
- solubility (mole fraction) (in ethanol, 313.15 K): 0.00489
- solubility (mole fraction) (in ethanol, 318.15 K): 0.00545
- solubility (mole fraction) (in ethyl acetate, 273.15 K): 0.00898
- solubility (mole fraction) (in ethyl acetate, 278.15 K): 0.0092
- solubility (mole fraction) (in ethyl acetate, 283.15 K): 0.00951
- solubility (mole fraction) (in ethyl acetate, 288.15 K): 0.00991
- solubility (mole fraction) (in ethyl acetate, 293.15 K): 0.0104
- solubility (mole fraction) (in ethyl acetate, 298.15 K): 0.0109
- solubility (mole fraction) (in ethyl acetate, 303.15 K): 0.0115
- solubility (mole fraction) (in ethyl acetate, 308.15 K): 0.0123
- solubility (mole fraction) (in ethyl acetate, 313.15 K): 0.0131
- solubility (mole fraction) (in ethyl acetate, 318.15 K): 0.014
- solubility (mole fraction) (in isopropanol, 273.15 K): 0.000921
- solubility (mole fraction) (in isopropanol, 278.15 K): 0.00105
- solubility (mole fraction) (in isopropanol, 283.15 K): 0.0012
- solubility (mole fraction) (in isopropanol, 288.15 K): 0.00141
- solubility (mole fraction) (in isopropanol, 293.15 K): 0.00164
- solubility (mole fraction) (in isopropanol, 298.15 K): 0.00191
- solubility (mole fraction) (in isopropanol, 303.15 K): 0.00221
- solubility (mole fraction) (in isopropanol, 308.15 K): 0.00257
- solubility (mole fraction) (in isopropanol, 313.15 K): 0.00298
- solubility (mole fraction) (in isopropanol, 318.15 K): 0.00346
- solubility (mole fraction) (in n-octanol, 273.15 K): 0.00215
- solubility (mole fraction) (in n-octanol, 278.15 K): 0.00223
- solubility (mole fraction) (in n-octanol, 283.15 K): 0.00233
- solubility (mole fraction) (in n-octanol, 288.15 K): 0.00246
- solubility (mole fraction) (in n-octanol, 293.15 K): 0.00263
- solubility (mole fraction) (in n-octanol, 298.15 K): 0.00284
- solubility (mole fraction) (in n-octanol, 303.15 K): 0.0031
- solubility (mole fraction) (in n-octanol, 308.15 K): 0.00343
- solubility (mole fraction) (in n-octanol, 313.15 K): 0.00378
- solubility (mole fraction) (in n-octanol, 318.15 K): 0.0042

SMILES: CCOC(=O)[C@H](CCc1ccccc1)N[C@@H](C)C(=O)N1CCC[C@H]1C(=O)O.O=C(O)/C=C\C(=O)O
- solubility (mole fraction) (in acetone, 273.15 K): 0.00118
- solubility (mole fraction) (in acetone, 278.15 K): 0.00139
- solubility (mole fraction) (in acetone, 283.15 K): 0.00176
- solubility (mole fraction) (in acetone, 288.15 K): 0.0021
- solubility (mole fraction) (in acetone, 293.15 K): 0.00243
- solubility (mole fraction) (in acetone, 298.15 K): 0.00302
- solubility (mole fraction) (in acetone, 303.15 K): 0.0038
- solubility (mole fraction) (in acetone, 308.15 K): 0.00451
- solubility (mole fraction) (in acetone, 313.15 K): 0.0054
- solubility (mole fraction) (in acetone, 318.15 K): 0.00651
- solubility (mole fraction) (in acetonitrile, 273.15 K): 0.000339
- solubility (mole fraction) (in acetonitrile, 278.15 K): 0.000452
- solubility (mole fraction) (in acetonitrile, 283.15 K): 0.000569
- solubility (mole fraction) (in acetonitrile, 288.15 K): 0.000716
- solubility (mole fraction) (in acetonitrile, 293.15 K): 0.0009
- solubility (mole fraction) (in acetonitrile, 298.15 K): 0.00117
- solubility (mole fraction) (in acetonitrile, 303.15 K): 0.00153
- solubility (mole fraction) (in acetonitrile, 308.15 K): 0.00204
- solubility (mole fraction) (in acetonitrile, 313.15 K): 0.00261
- solubility (mole fraction) (in acetonitrile, 318.15 K): 0.00334
- solubility (mole fraction) (in ethanol, 273.15 K): 0.000616
- solubility (mole fraction) (in ethanol, 278.15 K): 0.000761
- solubility (mole fraction) (in ethanol, 283.15 K): 0.000998
- solubility (mole fraction) (in ethanol, 288.15 K): 0.00133
- solubility (mole fraction) (in ethanol, 293.15 K): 0.00177
- solubility (mole fraction) (in ethanol, 298.15 K): 0.00226
- solubility (mole fraction) (in ethanol, 303.15 K): 0.00292
- solubility (mole fraction) (in ethanol, 308.15 K): 0.00366
- solubility (mole fraction) (in ethanol, 313.15 K): 0.00449
- solubility (mole fraction) (in ethanol, 318.15 K): 0.00536
- solubility (mole fraction) (in ethyl acetate, 273.15 K): 0.0013
- solubility (mole fraction) (in ethyl acetate, 278.15 K): 0.00171
- solubility (mole fraction) (in ethyl acetate, 283.15 K): 0.00231
- solubility (mole fraction) (in ethyl acetate, 288.15 K): 0.00304
- solubility (mole fraction) (in ethyl acetate, 293.15 K): 0.00379
- solubility (mole fraction) (in ethyl acetate, 298.15 K): 0.00471
- solubility (mole fraction) (in ethyl acetate, 303.15 K): 0.00576
- solubility (mole fraction) (in ethyl acetate, 308.15 K): 0.00689
- solubility (mole fraction) (in ethyl acetate, 313.15 K): 0.00796
- solubility (mole fraction) (in ethyl acetate, 318.15 K): 0.00941
- solubility (mole fraction) (in isopropanol, 273.15 K): 0.000144
- solubility (mole fraction) (in isopropanol, 278.15 K): 0.000184
- solubility (mole fraction) (in isopropanol, 283.15 K): 0.000242
- solubility (mole fraction) (in isopropanol, 288.15 K): 0.000327
- solubility (mole fraction) (in isopropanol, 293.15 K): 0.000452
- solubility (mole fraction) (in isopropanol, 298.15 K): 0.000605
- solubility (mole fraction) (in isopropanol, 303.15 K): 0.000809
- solubility (mole fraction) (in isopropanol, 308.15 K): 0.00105
- solubility (mole fraction) (in isopropanol, 313.15 K): 0.00133
- solubility (mole fraction) (in isopropanol, 318.15 K): 0.00176
- solubility (mole fraction) (in n-octanol, 273.15 K): 0.000311
- solubility (mole fraction) (in n-octanol, 278.15 K): 0.000406
- solubility (mole fraction) (in n-octanol, 283.15 K): 0.000509
- solubility (mole fraction) (in n-octanol, 288.15 K): 0.000642
- solubility (mole fraction) (in n-octanol, 293.15 K): 0.00083
- solubility (mole fraction) (in n-octanol, 298.15 K): 0.00105
- solubility (mole fraction) (in n-octanol, 303.15 K): 0.00131
- solubility (mole fraction) (in n-octanol, 308.15 K): 0.00167
- solubility (mole fraction) (in n-octanol, 313.15 K): 0.00206
- solubility (mole fraction) (in n-octanol, 318.15 K): 0.00256
